Results on 27 compounds are retold here after US8686150B2 (Sanofi, priority 2011, dated 2014).

In this test the target is T1, human full-length recombinant PKC βII (Homo sapiens, UniProt P05771).
T1 construct: Active human full-length recombinant PKC βII; purchased Invitrogen GmbH, Darmstadt, Germany
The experiment in a line: Determination of PKC βII inhibition (Caliper mobility-shift kinase assay, Fluorescein-RFARKGSLRQKNV peptide substrate). In kind it is biochemical. The conditions noted are these: example compounds at a final concentration of 1.14 μM (±0.15 μM). The protocol: Determination of PKC βII Inhibition
PKC βII Inhibition was Determined According to the Following Protocol:
Active human full-length recombinant PKC βII and the peptide substrate, Fluorescein-RFARKGSLRQKNV, were purchased from Invitrogen GmbH, Darmstadt, Germany. Adenosine-5′-triphosphate (ATP), bovine serum albumine (BSA), dimethylsulphoxide (DMSO), 4-(2-hydroxyethyl)piperazine-1-ethanesulfonic acid (Hepes), Triton X-100, 1,2-Dioleoyl-sn-glycerol (DAG), L-G-Phosphatidyl-L-serine (PS), calcium chloride (CaCl2), and Pluronic F-68 were purchased from Sigma-Aldrich, Munich, Germany. Magnesium chloride, 1 M sodium hydroxide solution, 1M hydrochloric acid solution and EDTA were obtained from Merck Biosciences, Darmstadt, Germany.
Test compounds were diluted to three times the test concentration in buffer 1 (30 mM Hepes-NaOH, pH 7.4, 0.01% Pluronic F-68 and 3% (v/v) DMSO). The PKC enzyme was diluted to a concentration of 30 ng/ml in buffer 2 (30 mM Hepes-NaOH, pH 7.4, 15 mM MgCl2, 150 μM CaCl2, 150 μg/ml PS, 60 μg/ml DAG, and 0.045% (w/v) Triton X-100). The peptide substrate and ATP were diluted to concentrations of 3 μM and 120 μM, respectively, in buffer 2. Two μl of the compound solution were mixed with 2 μl of the diluted enzyme in a 384-well small volume microtiter plate (Greiner, Bio-One, Frickenhausen, Germany), and the kinase reaction was initiated by addition of 2 μl of the solution containing peptide substrate and ATP. After 60 min incubation at 32° C., the reaction was stopped by addition of 20 μl of a solution containing 130 mM Hepes-NaOH, pH 7.4. 0.0195% (v/v) Brij-35, 6.5 mM EDTA. 0.13% chip coating reagent 3 (Caliper Lifescience Inc, Hopkinton, Mass.) and 6.5% (v/v) DMSO. Phosphorylation of the substrate peptide was then detected on a Caliper 3000 instrument essentially as described by Pommereau et al (J. Biomol. Screening 2004, 9(5), 409-416). Separation conditions were as follows: Pressure −0.8 psi, upstream voltage −3000 V, downstream voltage −800 V. Positive controls (buffer 1 instead of compound) and negative controls (buffer 1 instead of compound and buffer 2 instead of kinase solution) were run in parallel on each plate. Fractional turnover (R) was determined as the height of the peak of the phosphorylated peptide product divided by the sum of the unphosphorylated substrate and phosphorylated product peak heights. Percent-inhibition values for the test compounds were determined using the formula % Inhibition=100*(1−(Rcompound−Rnegative control)/(Rpositive control−Rnegative control).
In the following table % inhibition values observed with example compounds at a final concentration of 1.14 μM (±0.15 μM) are listed: […]

T1 sequence (P05771 1-673 isoform P05771-2): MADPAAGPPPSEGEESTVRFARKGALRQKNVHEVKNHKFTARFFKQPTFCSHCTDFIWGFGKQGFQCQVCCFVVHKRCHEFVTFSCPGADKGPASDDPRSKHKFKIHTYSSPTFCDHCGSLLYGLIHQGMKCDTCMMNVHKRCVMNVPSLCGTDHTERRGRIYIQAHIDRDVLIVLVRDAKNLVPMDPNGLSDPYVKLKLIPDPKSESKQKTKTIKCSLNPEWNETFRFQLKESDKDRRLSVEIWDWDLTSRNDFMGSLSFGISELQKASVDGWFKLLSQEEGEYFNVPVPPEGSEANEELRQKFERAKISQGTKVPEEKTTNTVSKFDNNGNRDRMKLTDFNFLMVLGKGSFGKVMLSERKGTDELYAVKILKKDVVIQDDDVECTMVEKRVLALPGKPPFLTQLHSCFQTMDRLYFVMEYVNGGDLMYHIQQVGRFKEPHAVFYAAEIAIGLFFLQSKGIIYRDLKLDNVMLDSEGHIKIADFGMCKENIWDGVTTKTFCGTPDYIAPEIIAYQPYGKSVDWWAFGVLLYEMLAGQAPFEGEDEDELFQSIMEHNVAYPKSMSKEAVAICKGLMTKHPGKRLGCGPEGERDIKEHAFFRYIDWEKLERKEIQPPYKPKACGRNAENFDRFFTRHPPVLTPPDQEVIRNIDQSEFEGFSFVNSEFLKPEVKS

As to `Cc1n[nH]c2nc(-c3ccc(O)cc3Cl)cc(C(=O)N3CCNCC3)c12` [Example 6, [6-(2-Chloro-4-hydroxy-phenyl)-3-methyl-1H-pyrazolo[3,4-b]pyridin-4-yl]-piperazin-1-yl-methanone], the inhibition at 1.14 µM came out at 97%.
With `Cc1n[nH]c2nc(-c3ccc(O)c(F)c3)cc(C(=O)N3CCNCC3)c12` [Example 7, [6-(3-Fluoro-4-hydroxy-phenyl)-3-methyl-1H-pyrazolo[3,4-b]pyridin-4-yl]-piperazin-1-yl-methanone], the inhibition at 1.14 µM was 91%.
Take `Cc1cc(-c2cc(C(=O)N3CCNCC3)c3c(C)n[nH]c3n2)ccc1O` [Example 8, [6-(4-Hydroxy-3-methyl-phenyl)-3-methyl-1H-pyrazolo[3,4-b]pyridin-4-yl]-piperazin-1-yl-methanone]: the inhibition at 1.14 µM was determined as 32%.
On to `Cc1n[nH]c2nc(-c3ccc(O)c(Cl)c3)cc(C(=O)N3CCNCC3)c12` [Example 9, [6-(3-Chloro-4-hydroxy-phenyl)-3-methyl-1H-pyrazolo[3,4-b]pyridin-4-yl]-piperazin-1-yl-methanone], for which the inhibition at 1.14 µM was 41%.
As for `COc1cc(-c2cc(C(=O)N3CCNCC3)c3c(C)n[nH]c3n2)ccc1O` [Example 10, [6-(4-Hydroxy-3-methoxy-phenyl)-3-methyl-1H-pyrazolo[3,4-b]pyridin-4-yl]-piperazin-1-yl-methanone], the inhibition at 1.14 µM was found to be 29%.
For `Cc1n[nH]c2nc(-c3ccc(O)cc3F)cc(C(=O)N3CCNCC3)c12` [Example 11, [6-(2-Fluoro-4-hydroxy-phenyl)-3-methyl-1H-pyrazolo[3,4-b]pyridin-4-yl]-piperazin-1-yl-methanone] the value was 101%; for `Cc1n[nH]c2nc(-c3cc(F)c(O)c(F)c3)cc(C(=O)N3CCNCC3)c12` [Example 12, [6-(3,5-Difluoro-4-hydroxy-phenyl)-3-methyl-1H-pyrazolo[3,4-b]pyridin-4-yl]-piperazin-1-yl-methanone], 61%; for `Cc1cc(O)ccc1-c1cc(C(=O)N2CCNCC2)c2c(C)n[nH]c2n1` [Example 13, [6-(4-Hydroxy-2-methyl-phenyl)-3-methyl-1H-pyrazolo[3,4-b]pyridin-4-yl]-piperazin-1-yl-methanone], 96%.
In the case of `COc1cc(O)ccc1-c1cc(C(=O)N2CCNCC2)c2c(C)n[nH]c2n1` [Example 14, [6-(4-Hydroxy-2-methoxy-phenyl)-3-methyl-1H-pyrazolo[3,4-b]pyridin-4-yl]-piperazin-1-yl-methanone], the inhibition at 1.14 µM came out at 94%.
On to `CCOc1cc(-c2cc(C(=O)N3CCNCC3)c3c(C)n[nH]c3n2)ccc1O` [Example 15, [6-(3-Ethoxy-4-hydroxy-phenyl)-3-methyl-1H-pyrazolo[3,4-b]pyridin-4-yl]-piperazin-1-yl-methanone], for which the inhibition at 1.14 µM was found to be 35%.
`Cc1n[nH]c2nc(-c3cc(F)c(O)c(F)c3)cc(C(=O)N3CCNC[C@@H]3C)c12` [Example 16, [6-(3,5-Difluoro-4-hydroxy-phenyl)-3-methyl-1H-pyrazolo[3,4-b]pyridin-4-yl]-((S)-2-methyl-piperazin-1-yl)-methanone]: the inhibition at 1.14 µM amounted to 69%.
In the case of `Cc1cc(O)ccc1-c1cc(C(=O)N2CCNC[C@@H]2C)c2c(C)n[nH]c2n1` [Example 17, [6-(4-Hydroxy-2-methyl-phenyl)-3-methyl-1H-pyrazolo[3,4-b]pyridin-4-yl]-((S)-2-methyl-piperazin-1-yl)-methanone], the inhibition at 1.14 µM came to 95%.
For `COc1cc(O)ccc1-c1cc(C(=O)N2CCNC[C@@H]2C)c2c(C)n[nH]c2n1` [Example 18, [6-(4-Hydroxy-2-methoxy-phenyl)-3-methyl-1H-pyrazolo[3,4-b]pyridin-4-yl]-((S)-2-methyl-piperazin-1-yl)-methanone], the inhibition at 1.14 µM came to 94%.
For the compound `Cc1n[nH]c2nc(-c3ccc(O)cc3)cc(C(=O)N3CC4CC3CN4)c12` (stereo not drawn) [Example 19, 2,5-Diaza-bicyclo[2.2.1]hept-2-yl-[6-(4-hydroxy-phenyl)-3-methyl-1H-pyrazolo[3,4-b]pyridin-4-yl]-methanone], the inhibition at 1.14 µM is 92%.
Take `CC[C@H]1CNCCN1C(=O)c1cc(-c2ccc(O)cc2)nc2[nH]nc(C)c12` [Example 20, ((S)-2-Ethyl-piperazin-1-yl)-[6-(4-hydroxy-phenyl)-3-methyl-1H-pyrazolo[3,4-b]pyridin-4-yl]-methanone]: the inhibition at 1.14 µM stood at 110%.
In the case of `COC[C@H]1CNCCN1C(=O)c1cc(-c2ccc(O)cc2)nc2[nH]nc(C)c12` [Example 21, [6-(4-Hydroxy-phenyl)-3-methyl-1H-pyrazolo[3,4-b]pyridin-4-yl]-((R)-2-methoxymethyl-piperazin-1-yl)-methanone], the inhibition at 1.14 µM turned out to be 121%.
In the case of `Cc1n[nH]c2nc(-c3ccc(O)cc3)cc(C(=O)N(CCc3ccccc3)[C@@H]3CCCNC3)c12` [Example 22, 6-(4-Hydroxy-phenyl)-3-methyl-1H-pyrazolo[3,4-b]pyridine-4-carboxylic acid phenethyl-(R)-piperidin-3-yl-amide], the inhibition at 1.14 µM was 63%.
For `Cc1n[nH]c2nc(-c3ccc(O)cc3)cc(C(=O)N3CCNC[C@H]3C)c12` [Example 23, [6-(4-Hydroxy-phenyl)-3-methyl-1H-pyrazolo[3,4-b]pyridin-4-yl]-((R)-2-methyl-piperazin-1-yl)-methanone] the value was 95%; for `Cc1n[nH]c2nc(-c3ccc(O)cc3)cc(C(=O)N3C[C@@H](C)N[C@@H](C)C3)c12` [Example 24, ((3R,5S)-3,5-Dimethyl-piperazin-1-yl)-[6-(4-hydroxy-phenyl)-3-methyl-1H-pyrazolo[3,4-b]pyridin-4-yl]-methanone], 95%; for `Cc1n[nH]c2nc(-c3ccc(O)cc3)cc(C(=O)N3CCNC(c4ccccc4)C3)c12` (stereo not drawn) [Example 25, [6-(4-Hydroxy-phenyl)-3-methyl-1H-pyrazolo[3,4-b]pyridin-4-yl]-(3-phenyl-piperazin-1-yl)-methanone], 89%.
With `Cc1n[nH]c2nc(-c3ccc(O)cc3)cc(C(=O)N3CCNCC3c3ccccc3)c12` (stereo not drawn) [Example 26, [6-(4-Hydroxy-phenyl)-3-methyl-1H-pyrazolo[3,4-b]pyridin-4-yl]-(2-phenyl-piperazin-1-yl)-methanone], the inhibition at 1.14 µM is 97%.
For `Cc1n[nH]c2nc(-c3ccc(O)cc3)cc(C(=O)N3CCNC[C@@H]3c3ccccc3)c12` [Example 27, [6-(4-Hydroxy-phenyl)-3-methyl-1H-pyrazolo[3,4-b]pyridin-4-yl]-((S)-2-phenyl-piperazin-1-yl)-methanone] the value was 95%; for `Cc1n[nH]c2nc(-c3ccc(O)cc3)cc(C(=O)N3CCNC[C@H]3c3ccccc3)c12` [Example 28, [6-(4-Hydroxy-phenyl)-3-methyl-1H-pyrazolo[3,4-b]pyridin-4-yl]-((R)-2-phenyl-piperazin-1-yl)-methanone], 99%.
For `Cc1n[nH]c2nc(-c3ccc(O)cc3)cc(C(=O)N3CCNCC3c3ccc(Cl)c(Cl)c3)c12` (stereo not drawn) [Example 29, [2-(3,4-Dichloro-phenyl)-piperazin-1-yl]-[6-(4-hydroxy-phenyl)-3-methyl-1H-pyrazolo[3,4-b]pyridin-4-yl]-methanone] the value was 99%; for `Cc1n[nH]c2nc(-c3ccc(O)cc3)cc(C(=O)N3CCNCC3c3ccco3)c12` (stereo not drawn) [Example 30, (2-Furan-2-yl-piperazin-1-yl)-[6-(4-hydroxy-phenyl)-3-methyl-1H-pyrazolo[3,4-b]pyridin-4-yl]-methanone], 96%; for `Cc1n[nH]c2nc(-c3ccc(O)cc3)cc(C(=O)N3CCNCC3c3cccs3)c12` (stereo not drawn) [Example 31, [6-(4-Hydroxy-phenyl)-3-methyl-1H-pyrazolo[3,4-b]pyridin-4-yl]-(2-thiophen-2-yl-piperazin-1-yl)-methanone], 99%.
For `Cc1n[nH]c2nc(-c3ccc(O)cc3)cc(C(=O)N3CCNCC3c3ccc4c(c3)OCO4)c12` (stereo not drawn) [Example 32, (2-Benzo[1,3]dioxol-5-yl-piperazin-yl)-[6-(4-hydroxy-phenyl)-3-methyl-1H-pyrazolo[3,4-b]pyridin-4-yl]-methanone] the value was 98%.
